Data taken from patent publication US11142515B2, “Pyrazolyl-ureas as kinase inhibitors” (RESPIVERT LIMITED, priority 2014, dated 2021).

target: T1, p38MAPKγ (MAPK12) (Homo sapiens, UniProt P53778); assay: p38 MAPKγ enzyme inhibition (Z-LYTE FRET); type: biochemical; settings: Table 2B, unit inferred; read-out: p38 MAPKγ (Enzyme Profile)
T1 construct: purchased Life Technologies
T1 sequence (P53778 1-367): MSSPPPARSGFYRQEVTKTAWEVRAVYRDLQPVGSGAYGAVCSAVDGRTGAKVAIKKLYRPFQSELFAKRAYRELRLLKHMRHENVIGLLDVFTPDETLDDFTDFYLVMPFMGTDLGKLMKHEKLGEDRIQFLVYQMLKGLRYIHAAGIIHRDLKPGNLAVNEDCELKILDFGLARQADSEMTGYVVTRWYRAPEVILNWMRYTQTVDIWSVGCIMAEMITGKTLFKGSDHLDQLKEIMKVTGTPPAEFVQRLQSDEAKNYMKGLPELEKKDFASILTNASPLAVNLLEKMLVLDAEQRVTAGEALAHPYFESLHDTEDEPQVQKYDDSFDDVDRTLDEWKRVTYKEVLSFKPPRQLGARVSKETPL
Experimental: The enzyme inhibitory activities of compounds disclosed herein were determined by FRET using synthetic peptides labelled with both donor and acceptor fluorophores (Z-LYTE, Life Technologies, Paisley, UK).
The inhibitory activities of compounds of the invention against p38MAPKγ (MAPK12: Life Technologies), were evaluated by determining the level of activation/phosphorylation of the target peptide. The enzyme (800 ng/mL, 2.5 μL) was incubated with the test compound (2.5 μL at either 40 μg/mL, 12 μg/mL, 4 μg/mL, 1.2 μg/mL, 0.4 μg/mL, 0.12 μg/mL, 0.04 μg/mL, 0.012 μg/mL, 0.004 μg/mL or 0.0012 μg/mL) for 2 h at RT. The FRET peptides (8 μM, 2.5 μL), and appropriate ATP solution (2.5 μL, 400 μM) were then added to the enzymes/compound mixtures and incubated for 1 h at RT. Development reagent (protease, 5 μL) was added for 1 h prior to detection in a fluorescence microplate reader (EnVision, Perkin Elmer).
In all cases, the site-specific protease cleaves non-phosphorylated peptide only and eliminates the FRET signal. Phosphorylation levels of each reaction were calculated using the ratio of coumarin emission (donor) over fluorescein emission (acceptor), for which low ratios indicate high phosphorylation and high ratios indicate low phosphorylation levels.

Row | SMILES | IC50
1 | CSc1cccc(-n2nc(C(C)(C)C)cc2NC(=O)Nc2ccc(OCc3ccnc(Nc4cnccn4)c3)c3ccccc23)c1 [Example 77] | 106 nM
2 | Cc1ccc(-n2nc(C(C)(C)C)cc2NC(=O)Nc2ccc(OCc3ccnc(Nc4cnc(C(=O)N[C@@H]5CCN(C)C5)cn4)c3)c3ccccc23)cc1 [Example 82] | 46 nM
3 | Cc1ccc(-n2nc(C(C)(C)C)cc2NC(=O)Nc2ccc(OCc3ccnc(Nc4cnc(C(=O)N[C@H]5CCN(C)C5)cn4)c3)c3ccccc23)cc1 [Example 83] | 39 nM
4 | Cc1ccc(-n2nc(C(C)(C)C)cc2NC(=O)Nc2ccc(OCc3ccnc(Nc4cnc(C(=O)NCCN5C[C@@H](C)O[C@@H](C)C5)cn4)c3)c3ccccc23)cc1 [Example 85] | 166 nM
5 | Cc1ccc(-n2nc(C(C)(C)C)cc2NC(=O)Nc2ccc(OCc3ccnc(Nc4cnc(C(=O)NC[C@H](O)CN5CCOCC5)cn4)c3)c3ccccc23)cc1 [Example 87] | 63 nM
6 | Cc1ccc(-n2nc(C(C)(C)C)cc2NC(=O)Nc2ccc(OCc3ccnc(Nc4cnc(C(=O)N[C@H]5CCCN(C)C5)cn4)c3)c3ccccc23)cc1 [Example 88] | 233 nM
7 | Cc1ccc(-n2nc(C(C)(C)C)cc2NC(=O)Nc2ccc(OCc3ccnc(Nc4cnc(C(=O)NC5CN(C)C5)cn4)c3)c3ccccc23)cc1 [Example 89] | 42 nM
8 | Cc1ccc(-n2nc(C(C)(C)C)cc2NC(=O)Nc2ccc(OCc3ccnc(Nc4cnc(C(=O)NCCn5ccnc5C)cn4)c3)c3ccccc23)cc1 [Example 90] | 83 nM
9 | Cc1ccc(-n2nc(C(C)(C)C)cc2NC(=O)Nc2ccc(OCc3ccnc(Nc4cnc(C(=O)N[C@H]5COC[C@@H]5N5CCOCC5)cn4)c3)c3ccccc23)cc1 [Example 93] | 103 nM
10 | COCc1cccc(-n2nc(C(C)(C)C)cc2NC(=O)Nc2ccc(OCc3ccnc(Nc4cnc(C(=O)NCC5CCN(C)CC5)cn4)c3)c3ccccc23)c1 [Example 99] | 11 nM
11 | COc1ccc(-n2nc(C(C)(C)C)cc2NC(=O)Nc2ccc(OCc3ccnc(Nc4cnc(C)c(C)n4)c3)c3ccccc23)cc1F [Example 252, 1-(3-(tert-butyl)-1-(3-fluoro-4-methoxyphenyl)-1H-pyrazol-5-yl)-3-(4-((2-((5,6-dimethylpyrazin-2-yl)amino)pyridin-4-yl)methoxy)naphthalen-1-yl)urea] | > 15100 nM
12 | CC(C)(C)c1cc(NC(=O)Nc2ccc(OCc3ccnc(Nc4cnc(CO)cn4)c3)c3ccccc23)n(-c2cccc(F)c2)n1 [Example 253, 1-(3-(tert-butyl)-1-(3-fluoro-phenyl)-1H-pyrazol-5-yl)-3-(4-((2-((5-(hydroxymethyl)pyrazin-2-yl)amino)pyridin-4-yl)methoxy)naphthalen-1-yl)urea] | 75 nM
13 | CCc1cncc(Nc2cc(COc3ccc(NC(=O)Nc4cc(C(C)(C)C)nn4-c4cc(C)cc(F)c4)c4ccccc34)ccn2)n1 [Example 254, 1-(3-(tert-butyl)-1-(3-fluoro-5-methylphenyl)-1H-pyrazol-5-yl)-3-(4-((2-((6-ethyl-pyrazin-2-yl)amino)pyridin-4-yl)methoxy)naphthalen-1-yl)urea] | 1930 nM
14 | CCCc1cncc(Nc2cc(COc3ccc(NC(=O)Nc4cc(C(C)(C)C)nn4-c4cccc(F)c4)c4ccccc34)ccn2)n1 [Example 255, 1-(3-(tert-butyl)-1-(3-fluoro-phenyl)-1H-pyrazol-5-yl)-3-(4-((2-((6-propylpyrazin-2-yl)amino)pyridin-4-yl)methoxy)naphthalen-1-yl) urea] | > 15500 nM
15 | CC(C)(C)c1cc(NC(=O)Nc2ccc(OCc3ccnc(Nc4cnc(CO)cn4)c3)c3ccccc23)n(-c2cccc(Cl)c2)n1 [Example 256, 1-(3-(tert-butyl)-1-(3-chloro-phenyl)-1H-pyrazol-5-yl)-3-(4-((2-((5-(hydroxymethyl)pyrazin-2-yl)amino)pyridin-4-yl)methoxy)naphthalen-1-yl)urea] | > 15400 nM
16 | CCN1CCN(C(=O)c2cnc(Nc3cc(COc4ccc(NC(=O)Nc5cc(C(C)(C)C)nn5-c5ccc(C)cc5)c5ccccc45)ccn3)cn2)CC1 [Example 271, 1-(3-(tert-butyl)-1-(p-tolyl)-1H-pyrazol-5-yl)-3-(4-((2-((5-(4-ethylpiperazine-1-carbonyl)pyrazin-2-yl)amino)pyridin-4-yl)methoxy)naphthalen-1-yl)urea] | 108 nM
17 | Cc1ccc(-n2nc(C(C)(C)C)cc2NC(=O)Nc2ccc(OCc3ccnc(Nc4cnc(C(=O)N5CCC(N(C)C)CC5)cn4)c3)c3ccccc23)cc1 [Example 272] | 4 nM
18 | Cc1ccc(-n2nc(C(C)(C)C)cc2NC(=O)Nc2ccc(OCc3ccnc(Nc4cnc(C(=O)N5CCN(CCN(C)C)CC5)cn4)c3)c3ccccc23)cc1 [Example 273, 1-(3-(tert-butyl)-1-(p-tolyl)-1H-pyrazol-5-yl)-3-(4-((2-((5-(4-(2-(dimethylamino)ethyl)piperazine-1-carbonyl)pyrazin-2-yl)amino)pyridin-4-yl)methoxy)naphthalen-1-yl)urea] | 4.7 nM
19 | Cc1ccc(-n2nc(C(C)(C)C)cc2NC(=O)Nc2ccc(OCc3ccnc(Nc4cnc(C(=O)N5CCCN(C)CC5)cn4)c3)c3ccccc23)cc1 [Example 274, 1-(3-(tert-butyl)-1-(p-tolyl)-1H-pyrazol-5-yl)-3-(4-((2-((5-(4-methyl-1,4-diazepane-1-carbonyl)pyrazin-2-yl)amino)pyridin-4-yl)methoxy)naphthalen-1-yl)urea] | 13 nM
20 | Cc1ccc(-n2nc(C(C)(C)C)cc2NC(=O)Nc2ccc(OCc3ccnc(Nc4cnc(C(=O)N5CCN6CCC[C@H]6C5)cn4)c3)c3ccccc23)cc1 [Example 275, (S)-1-(3-(tert-butyl)-1-(p-tolyl)-1H-pyrazol-5-yl)-3-(4-((2-((5-(octahydropyrrolo [1,2-a]pyrazine-2-carbonyl)pyrazin-2-yl)amino)pyridin-4-yl)methoxy)naphthalen-1-yl)urea] | 129 nM

Results, then the compound that gave them:

Row | IC50 | SMILES
21 | 150 nM | CO[C@H]1CCCN(CCNC(=O)c2cnc(Nc3cc(COc4ccc(NC(=O)Nc5cc(C(C)(C)C)nn5-c5ccc(C)cc5)c5ccccc45)ccn3)cn2)C1 [Example 54, (S)-5-((4-(((4-(3-(3-(tert-butyl)-1-(p-tolyl)-1H-pyrazol-5-yl)ureido)naphthalen-1-yl)oxy)methyl)pyridin-2-yl)amino)-N-(2-(3-methoxypiperidin-1-yl)ethyl)pyrazine-2-carboxamide]
22 | 16 nM | Cc1ccc(-n2nc(C(C)(C)C)cc2NC(=O)Nc2ccc(OCc3ccnc(Nc4cnc(C(=O)NCC5CCN(C)CC5)cn4)c3)c3ccccc23)cc1 [Example 81]
23 | 67 nM | Cc1ccc(-n2nc(C(C)(C)C)cc2NC(=O)Nc2ccc(OCc3ccnc(Nc4cnc(C(=O)NCCN5CCC(O)CC5)cn4)c3)c3ccccc23)cc1 [Example 84]
24 | 19 nM | Cc1ccc(-n2nc(C(C)(C)C)cc2NC(=O)Nc2ccc(OCc3ccnc(Nc4cnc(C(=O)NCCN5CCCC5)cn4)c3)c3ccccc23)cc1 [Example 86]
25 | 176 nM | COC(=O)N1CCN(CCNC(=O)c2cnc(Nc3cc(COc4ccc(NC(=O)Nc5cc(C(C)(C)C)nn5-c5ccc(C)cc5)c5ccccc45)ccn3)cn2)CC1 [Example 91]
26 | 117 nM | COC1CCN(CCNC(=O)c2cnc(Nc3cc(COc4ccc(NC(=O)Nc5cc(C(C)(C)C)nn5-c5ccc(C)cc5)c5ccccc45)ccn3)cn2)CC1 [Example 92]
27 | 772 nM | Cc1ccc(-n2nc(C(C)(C)C)cc2NC(=O)Nc2ccc(OCc3ccnc(Nc4cnc(C(=O)NCCN5CCC(F)(F)CC5)cn4)c3)c3ccccc23)cc1 [Example 94]
28 | 55 nM | Cc1ccc(-n2nc(C(C)(C)C)cc2NC(=O)Nc2ccc(OCc3ccnc(Nc4cnc(C(=O)NCCN5CCC[C@@H](O)C5)cn4)c3)c3ccccc23)cc1 [Example 95]
29 | 269 nM | Cc1ccc(-n2nc(C(C)(C)C)cc2NC(=O)Nc2ccc(OCc3ccnc(Nc4cnc(C(=O)NCCN5CCC(F)CC5)cn4)c3)c3ccccc23)cc1 [Example 96]
30 | 34 nM | Cc1ccc(-n2nc(C(C)(C)C)cc2NC(=O)Nc2ccc(OCc3ccnc(Nc4cnc(C(=O)NCCN5CC[C@@H](O)C5)cn4)c3)c3ccccc23)cc1 [Example 97]
31 | 116 nM | CO[C@@H]1CCN(CCNC(=O)c2cnc(Nc3cc(COc4ccc(NC(=O)Nc5cc(C(C)(C)C)nn5-c5ccc(C)cc5)c5ccccc45)ccn3)cn2)C1 [Example 98]
32 | 202 nM | Cc1ccc(-n2nc(C(C)(C)C)cc2NC(=O)Nc2ccc(OCc3ccnc(Nc4cnc(C(=O)NCCN5CC[C@@H](F)C5)cn4)c3)c3ccccc23)cc1 [Example 100]
33 | 374 nM | Cc1ccc(-n2nc(C(C)(C)C)cc2NC(=O)Nc2ccc(OCc3ccnc(Nc4cnc(C(=O)NCCN5CCC[C@H](F)C5)cn4)c3)c3ccccc23)cc1 [Example 101]
34 | 46 nM | CC(=O)N1CCN(CCNC(=O)c2cnc(Nc3cc(COc4ccc(NC(=O)Nc5cc(C(C)(C)C)nn5-c5ccc(C)cc5)c5ccccc45)ccn3)cn2)CC1 [Example 102]
35 | 72 nM | Cc1ccc(-n2nc(C(C)(C)C)cc2NC(=O)Nc2ccc(OCc3ccnc(Nc4cnc(C(=O)NC5CCN(CCO)CC5)cn4)c3)c3ccccc23)cc1 [Example 103]
